Test results reported in publication PMC5405622 (Drug Metabolism Letters, 2016).
pKi: −log10 of the molar value. Values joined by “and” are separate entries in the source; they are usually repeats but may differ in a detail not shown here. Equal values may be shown once. Read-outs that look alike come from different tables or passages of the source.

Key:
[1] = tested on: mouse hepatocytes; assay: Metabolism of GNE1 in mouse hepatocytes with or without ABT; format: in vitro ADME; details: ABT 500 μM, GNE1 5 μM
[2] = read-out: Plasma concentration at Cmax; cited from earlier work
[3] = target: PAK1 (Homo sapiens, UniProt Q13153); assay: PAK1 inhibition constant; format: biochemical; details: read-out: PAK1 Ki
[4] = Log D at pH 7.4; format: physicochemical; details: octanol/buffer
[5] = Kinetic solubility; format: physicochemical
[6] = tested on: MDCK parent cells; assay: MDCK permeability and efflux; format: in vitro ADME; details: for MDCK A→B Papp: apical to basolateral
[7] = Intrinsic clearance in human liver microsomes; format: in vitro ADME; details: human liver microsomes 0.5 mg/mL, 0.5 μM, scaled
[8] = Intrinsic clearance in human hepatocytes; format: in vitro ADME; details: human hepatocytes 0.5 million cells/mL, 0.5 μM, scaled
[9] = Intrinsic clearance in rat liver microsomes; format: in vitro ADME; details: rat liver microsomes 0.5 mg/mL, 0.5 μM, scaled
[10] = Intrinsic clearance in rat hepatocytes; format: in vitro ADME; details: rat hepatocytes 0.5 million cells/mL, 0.5 μM, scaled
[11] = Intravenous bolus and infusion pharmacokinetics in Sprague-Dawley rats; format: in vivo, rat; details: for Clearance relative to hepatic blood flow: dosed in rat; for Plasma CL: n = 3; for In vivo rat CLp IV bolus: plasma
[12] = Unbound fraction in rat; format: in vitro ADME
[13] = Unbound fraction in liver perfusate and liver homogenate; format: in vitro ADME, rat
[14] = tested on: Oct1/2; assay: Blood clearance in Oct1/2 double KO and wild-type mice with or without ABT; format: in vivo, mouse; details: for Reduction of blood clearance by ABT: ABT 100 mg/kg oral 2 h before GNE1 2 mg/kg IV
[15] = Single-pass isolated perfused rat liver; format: in vitro ADME; details: for Propranolol (cassette) ER: propranolol 2 to 4 μM
[16] = not given; remark: listed apart in the source
[17] = tested on: cryo-preserved rat hepatocytes; details: cited from earlier work
[18] = tested on: cytochrome P450 (rat S9); assay: NADPH-dependent; format: in vitro ADME; details: S9 2 mg/mL, NADPH 1 mM
[19] = tested on: N-acetyltransferase (rat S9); assay: Acetyl-CoA-dependent N-acetylation in rat liver S9; format: in vitro ADME; details: S9 2 mg/mL, acetyl-CoA 1 mM
[20] = Stability of GNE4 in rat intestinal S9 and feces; format: in vitro ADME; details: rat intestinal S9 and feces (data not shown)
[21] = tested on: propranolol metabolism; assay: In vitro inhibition of propranolol metabolism by quinine; format: in vitro ADME; details: quinine 1-10 micromolar, in vitro (data not shown)

Chain of PAK1 (Q13153 whole entry): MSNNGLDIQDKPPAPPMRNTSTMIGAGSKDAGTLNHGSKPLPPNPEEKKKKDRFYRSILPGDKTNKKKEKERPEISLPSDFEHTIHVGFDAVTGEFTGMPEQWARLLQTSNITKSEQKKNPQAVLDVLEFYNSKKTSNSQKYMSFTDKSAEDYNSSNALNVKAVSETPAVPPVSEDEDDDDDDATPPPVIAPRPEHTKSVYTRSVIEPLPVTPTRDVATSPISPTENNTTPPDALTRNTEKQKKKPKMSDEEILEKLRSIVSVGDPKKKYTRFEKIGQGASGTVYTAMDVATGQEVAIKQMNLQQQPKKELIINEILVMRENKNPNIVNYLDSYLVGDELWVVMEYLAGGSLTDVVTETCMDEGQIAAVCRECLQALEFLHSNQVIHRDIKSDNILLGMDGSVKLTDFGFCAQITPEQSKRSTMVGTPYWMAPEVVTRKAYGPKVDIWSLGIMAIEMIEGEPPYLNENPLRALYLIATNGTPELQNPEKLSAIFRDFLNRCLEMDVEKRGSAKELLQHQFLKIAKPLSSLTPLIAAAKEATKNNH

## Nn1nnc2ccccc21 [ABT, 1-aminobenzotriazole]
[1]
  Inhibition of oxidative and N-acetylation metabolism of GNE1: completely inhibited
[2]
  Cmax: 752 µM

## N[C@H]1CC[C@H](CNc2ncc(Cl)c(Nc3cc(C4CC4)[nH]n3)n2)CC1 [GNE1, N^2-(((1r,4r)-4-aminocyclohexyl)methyl)-5-chloro-N^4-(5-cyclopropyl-1H-pyrazol-3-yl)pyrimidine-2,4-diamine]
[3]
  pKi: 7.59
[4]
  Log DpH=7.4: 0.83
[5]
  Kinetic solubility: 157 µM
[6]
  MDCK efflux ratio: 43
  MDCK A→B Papp: 0.1 ×10⁻⁶ cm/s
[7]
  HLM CLint: 4.5 mL/min/kg
[8]
  HH CLint: 2.4 mL/min/kg
[9]
  RLM CLint: 6.1 mL/min/kg
[10]
  RH CLint: 34 mL/min/kg
[11]
  Clearance relative to hepatic blood flow: greater than hepatic blood flow
[11]; rat, IV bolus, 2 mg/kg
  CLB (biliary clearance): 21.5 ± 6.20 mL/min/kg
  CLR (renal clearance): 49.7 ± 3.84 mL/min/kg
  Terminal half-life: 1.32 ± 0.43 h
  Vss: 20.5 ± 1.92 L/kg
  Plasma CL: 216 ± 53.0 mL/min/kg
[11]; rat, IV bolus
  In vivo rat CLp IV bolus: 216 mL/min/kg
[11]; rat, IV infusion 0.57 mg/kg/h
  CLR (renal clearance): 20 ± 1.2 mL/min/kg and 20.2 ± 1.22 mL/min/kg
  Terminal half-life: 0.74 ± 0.10 h
  Vss: 4.2 ± 1.2 L/kg and 4.21 ± 1.16 L/kg
[11]; rat, IV infusion 0.57 mg/kg/h to 90% of steady state
  Plasma CL: 121 ± 4.35 mL/min/kg
[12]
  fu rat: 0.16
[13]; isolated perfused liver perfusate (4% BSA, 20% bovine red blood cells)
  fu perfusate: 0.3
[13]; liver homogenate, corrected for dilution
  fu in liver (corrected): 0.3/0.01
[14]; Oct1/2 double KO mice
  Reduction of blood clearance by ABT: 28.2%
[14]; regardless of ABT treatment
  Average change of blood clearance between wild-type and transporter KO mice: 56%
[14]; wild-type and double KO mice averaged
  Average overall decrease of blood clearance by ABT: 24%
[14]; wild-type mice
  Reduction of blood clearance by ABT: 20.5%
[15]; GNE1 Cin = 0.3 μM with Quinine (10 μM)
  GNE1 hepatic ER: 0.36
[15]; GNE1 Cin = 0.3 μM, flow 12 mL/min
  GNE1 hepatic ER: 0.78
[15]; GNE1 Cin = 8 μM
  GNE1 hepatic ER: 0.41
[15]; end of perfusion, Cin = 0.3 μM
  Perfusate Cout: 0.07 µM
  Total liver concentration of GNE1: 8 µM
[15]; isolated perfused rat liver, Cin 0.3 μM
  Biliary clearance, fold lower than calculated perfusate clearance: about 26 fold
[15]; isolated perfused rat liver, GNE1 Cin = 0.3 μM
  Biliary clearance: 0.7 mL/min/kg
[15]; isolated perfused rat liver, GNE1 Cin = 0.3 μM with Quinine (10 μM)
  Biliary clearance: 0.046 mL/min/kg
[15]; isolated perfused rat liver, GNE1 Cin = 8 μM
  Biliary clearance: 0.23 mL/min/kg
[15]; liver/perfusate, Cin = 0.3 μM
  kpu,u (intracellular to extracellular ratio of unbound concentrations): 3.8
[15]; multiple IPL experiments
  Biliary clearance as share of total perfusate clearance: less than 5%
Intact rats (no bile collection), % of dose
  Total amount of GNE1 recovered in urine over 24 hours: 16% and 15.6% and 15%
Intact rats, 0-8 h (one value across 0-4h and 4-8h)
  Dose recovery of unchanged GNE1 in urine: 8.5 ± 2.3 % of Total Dosed
Intact rats, 8-24h
  Dose recovery of unchanged GNE1 in urine: 7.1 ± 2.0 % of Total Dosed
Intact rats, 24-48h
  Dose recovery of unchanged GNE1 in urine: <1 % of Total Dosed
Intact rats, 24-48h (72 h experiment)
  Dose recovery of unchanged GNE1 in feces: 8.4 ± 2.9 % of Total Dosed
Intact rats, 24–72 h
  Total Recovery (24–72 h) of unchanged GNE1: 8.4 % of Total Dosed
Intact rats, 48-72h
  Dose recovery of unchanged GNE1 in feces: <1 % of Total Dosed
  Dose recovery of unchanged GNE1 in urine: <1 % of Total Dosed
Intact rats, 72 h collection experiment
  Recovery of GNE1 in feces during 0–24 hours: up to 91 % of Total Dosed
Intact rats, up to 24 hours
  Total Recovery of unchanged GNE1: 93 % of Total Dosed
rat, IV
  N-acetylation as share of total dose: about 10%
[16]; BDC rats
  Fecal recovery of unchanged GNE1 over 24 hours: 24%
[16]; BDC rats, 0-4h
  Dose recovery of unchanged GNE1 in bile: 7.8 ± 1.2 % of Total Dosed
  Dose recovery of unchanged GNE1 in urine: BQL
[16]; BDC rats, 0-8h
  Dose recovery of unchanged GNE1 in feces: 5.8 ± 4.2 % of Total Dosed
[16]; BDC rats, 4-8h
  Dose recovery of unchanged GNE1 in bile: 2.5 ± 0.9 % of Total Dosed
  Dose recovery of unchanged GNE1 in urine: 30 % of Total Dosed and 30 ± 1.1 % of Total Dosed
[16]; BDC rats, 8-24h
  Dose recovery of unchanged GNE1 in bile: 3.9 ± 1.8 % of Total Dosed
  Dose recovery of unchanged GNE1 in feces: 18 % of Total Dosed and 18 ± 4.7 % of Total Dosed
  Dose recovery of unchanged GNE1 in urine: 2.8 ± 1.0 % of Total Dosed
[16]; BDC rats, 24-48h
  Dose recovery of unchanged GNE1 in bile: <1 % of Total Dosed
  Dose recovery of unchanged GNE1 in feces: 2.2 ± 1.4 % of Total Dosed
  Dose recovery of unchanged GNE1 in urine: <1 % of Total Dosed
[16]; BDC rats, 24–72 h
  Total Recovery (24–72 h) of unchanged GNE1: 2.2 % of Total Dosed
[16]; BDC rats, 48-72h
  Dose recovery of unchanged GNE1 in bile: 0 % of Total Dosed
  Dose recovery of unchanged GNE1 in feces: <1 % of Total Dosed
  Dose recovery of unchanged GNE1 in urine: <1 % of Total Dosed
[16]; BDC rats, 24 h
  Overall biliary excretion of unchanged GNE1: ~14%
[16]; BDC rats, 72 h collection experiment
  Recovery of GNE1 in feces during 0–24 hours: 31 % of Total Dosed
[16]; BDC rats, compared with intact rats
  Percentage of GNE1 detected in urine: 30%
[16]; BDC rats, up to 24 hours
  Total Recovery of unchanged GNE1: 71 % of Total Dosed
[16]; cannulated rats, IV
  Biliary clearance as share of total clearance: approximately 14%
[16]; rats, IV
  Renal clearance as share of total clearance: ~16%
[17]
  Uptake rate (CLint, influx): 11.1 mL/min/g of liver

## NC1CCN(c2nc(Nc3cc(C4CC4)[nH]n3)c3sccc3n2)CC1 [GNE2, 2-(4-aminopiperidin-1-yl)-N-(5-cyclopropyl-1H-pyrazol-3-yl) thieno [[3],2-d]pyrimidin-4-amine]
[3]
  pKi: 7.66
[4]
  Log DpH=7.4: 0.48
[5]
  Kinetic solubility: 72 µM
[6]
  MDCK efflux ratio: 13.5
  MDCK A→B Papp: 0.4 ×10⁻⁶ cm/s
[7]
  HLM CLint: 8.6 mL/min/kg
[8]
  HH CLint: 7.6 mL/min/kg
[9]
  RLM CLint: 62 mL/min/kg
[10]
  RH CLint: 91 mL/min/kg
[18]
  CLint of P450 metabolism in rat S9: <10 mL/min/kg
[19]
  CLint of N-acetylation in rat S9: 337 mL/min/kg
[11]
  Clearance relative to hepatic blood flow: greater than hepatic blood flow
[11]; rat, IV bolus
  In vivo rat CLp IV bolus: >>hepatic blood flow
[12]
  fu rat: 0.22

## N[C@H]1CC[C@H](CNc2nccc(Nc3cc(C4CC4)[nH]n3)n2)CC1 [GNE3, N^2-(((1r,4r)-4-aminocyclohexyl)methyl)-N^4-(5-cyclo-propyl-1H-pyrazol-3-yl)pyrimidine-2,4-diamine]
[3]
  pKi: 7.59
[4]
  Log DpH=7.4: -0.2
[5]
  Kinetic solubility: 136 µM
[6]
  MDCK efflux ratio: 6.2
  MDCK A→B Papp: 0.5 ×10⁻⁶ cm/s
[7]
  HLM CLint: 9.1 mL/min/kg
[8]
  HH CLint: 4.5 mL/min/kg
[9]
  RLM CLint: 8.3 mL/min/kg
[10]
  RH CLint: 10 mL/min/kg
[18]
  CLint of P450 metabolism in rat S9: <10 mL/min/kg
[19]
  CLint of N-acetylation in rat S9: 21 mL/min/kg
[11]
  Clearance relative to hepatic blood flow: greater than hepatic blood flow
[11]; rat, IV bolus
  In vivo rat CLp IV bolus: 160 mL/min/kg
[12]
  fu rat: 0.25

## CC(=O)N[C@H]1CC[C@H](CNc2ncc(Cl)c(Nc3cc(C4CC4)[nH]n3)n2)CC1 [GNE4, N-((1r,4r)-4-(((5-chloro-4-((5-cyclopropyl-1H-pyrazol-3-yl)amino)pyrimidin-2-yl)amino)methyl)cyclohexyl)acetamide]
[20]
  Stability to hydrolysis: stable to hydrolysis
Intact rats, over 72 hours
  GNE4 amount relative to parent (fold less) in urine, feces and bile combined: approximately 13 fold
rat, after IV GNE1, up to 24 hours, % of total dose
  Amount of GNE4 (N-acetylated metabolite of GNE1) detected in feces: 9.5%
[16]; BDC rats, over 72 hours
  GNE4 amount relative to parent (fold less) in urine, feces and bile combined: ~8 fold

## CC(C)NCC(O)COc1cccc2ccccc12 (stereo not drawn) [propranolol, reference compound]
[15]; cassette with GNE1 0.3 μM and Quinine (10 μM)
  Propranolol (cassette) ER: 0.45
[15]; cassette with GNE1 Cin = 0.3 μM
  Propranolol (cassette) ER: > 0.95
[15]; cassette with GNE1 Cin = 0.3 μM, listed as Propranolol
  Propranolol (cassette) ER: >0.95
[15]; cassette with GNE1 Cin = 8 μM
  Propranolol (cassette) ER: 0.91

## C=C[C@H]1C[N@@]2CC[C@H]1C[C@H]2[C@H](O)c1ccnc2ccc(OC)cc12 [quinine]
[21]
  Effect on propranolol metabolism: inhibit propranolol metabolism
